These results are taken from US11530186B2, “Inhibitors for the β-catenin / T-cell factor protein-protein interaction” (H. LEE MOFFITT CANCER CENTER AND RESEARCH INSTITUTE, INC., priority 2018, dated 2022).

Holding throughout (type): binding
In assay [1] the target is T1, β-catenin/APC-R3 (Homo sapiens, UniProt P35222).
T1 construct: 2000 nM human β-catenin (residues 138-781); 6×histidine (C); made in house; host or cells: E. coli BL21 DE3
T1 sequence (P35222 138-781): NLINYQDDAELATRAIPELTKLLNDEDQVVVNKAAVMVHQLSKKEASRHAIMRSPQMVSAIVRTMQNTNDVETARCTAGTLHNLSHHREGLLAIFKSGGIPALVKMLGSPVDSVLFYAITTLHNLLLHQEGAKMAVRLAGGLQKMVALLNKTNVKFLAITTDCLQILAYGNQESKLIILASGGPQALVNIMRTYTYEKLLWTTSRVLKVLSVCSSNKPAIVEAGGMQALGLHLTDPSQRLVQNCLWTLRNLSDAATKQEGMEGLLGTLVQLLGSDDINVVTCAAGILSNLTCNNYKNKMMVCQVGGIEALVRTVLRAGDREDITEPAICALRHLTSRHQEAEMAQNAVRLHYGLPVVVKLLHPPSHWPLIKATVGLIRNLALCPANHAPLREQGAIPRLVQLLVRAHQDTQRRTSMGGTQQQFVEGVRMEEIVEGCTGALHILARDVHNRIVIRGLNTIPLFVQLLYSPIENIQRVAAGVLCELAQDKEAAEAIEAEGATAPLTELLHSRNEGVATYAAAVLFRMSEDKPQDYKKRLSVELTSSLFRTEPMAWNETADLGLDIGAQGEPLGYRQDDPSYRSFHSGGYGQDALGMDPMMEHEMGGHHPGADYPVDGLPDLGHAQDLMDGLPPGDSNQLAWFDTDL
Nature of the assay: FP selectivity assay, β-catenin/APC-R3 assay. The protocol:
(§1) FP Selectivity Assays. Experiments were performed in 96-well Microfluor 2 black plates on a Synergy 2 plate reader (Biotek). The polarization was measured at room temperature with an excitation wavelength at 485 nm and an emission wavelength at 535 nm. The FP experiments were performed in an assay buffer of 25 mM Hepes (pH 7.4), 100 mM NaCl, 0.01% Triton X-100, and 100 μg/ml γ-globulin. The final reaction volume was set to 100 μL. For the β-catenin/Tcf assay, 10 nM human β-catenin (residues 138-781) was incubated with 2.5 nM C-terminally fluorescein-labeled human Tcf4 (residues 7-51) for 30 min at 4° C., and then different concentrations of the compound in assay buffer were added. […] For the β-catenin/cadherin assay, 150 nM human β-catenin (residues 138-781) was incubated with 5 nM C-terminally fluorescent-labeled human E-cadherin (residues 819-873) in assay buffer for 30 min at 4° C. The negative control refers to 5 nM E-cadherin fluorescence tracer and 150 nM β-catenin in assay buffer with no inhibitor presenting. The positive control refers to 5 nM E-cadherin fluorescence tracer in assay buffer. […] The negative control refers to 5 nM APC-R3 fluorescence tracer and 2,000 nM β-catenin in assay buffer without the tested compound. The positive control refers to 5 nM APC-R3 fluorescence tracer in assay buffer. Each assay plate was covered black and gently mixed on an orbital shaker at 4° C. for 2.5 h to reach equilibrium before the polarization values were read. […] The IC50 values were determined by GraphPad Prism 5.0. […] The results were expressed as mean±standard deviation. The Tcf/cahderin selectivity ratio was calculated on the basis of the respective Ki value of the β-catenin/E-cadherin interaction over that of the β-catenin/Tcf4 interaction. The Tcf/APC selectivity ratio was calculated on the basis of the respective Ki value of the β-catenin/APC-R3 interaction over that of the β-catenin/Tcf4 interaction. […]

The target of assay [2] is T2, β-catenin/E-cadherin (Homo sapiens, UniProt P35222).
T2 construct: 150 nM human β-catenin (residues 138-781); 6×histidine (C); made in house; host or cells: E. coli BL21 DE3
T2 sequence (P35222 138-781): T1 sequence (P35222 138-781)
Nature of the assay: FP selectivity assay, β-catenin/cadherin assay. The protocol:
as §1

The target in assay [3] is T3, β-catenin/Tcf4 (Homo sapiens, UniProt P35222).
T3 construct: Wild-type β-catenin (residues 138-781) were cloned into a pET-28b vector; 6×histidine (C); made in house; host or cells: E. coli BL21 DE3
T3 sequence (P35222 138-781): T1 sequence (P35222 138-781)
As to the kind of experiment: FP selectivity assay, β-catenin/Tcf assay. The settings on record: mean ± SD (n = 3). The protocol: FP Selectivity Assays. Experiments were performed in 96-well Microfluor 2 black plates on a Synergy 2 plate reader (Biotek). The polarization was measured at room temperature with an excitation wavelength at 485 nm and an emission wavelength at 535 nm. The FP experiments were performed in an assay buffer of 25 mM Hepes (pH 7.4), 100 mM NaCl, 0.01% Triton X-100, and 100 μg/ml γ-globulin. The final reaction volume was set to 100 μL. For the β-catenin/Tcf assay, 10 nM human β-catenin (residues 138-781) was incubated with 2.5 nM C-terminally fluorescein-labeled human Tcf4 (residues 7-51) for 30 min at 4° C., and then different concentrations of the compound in assay buffer were added. […] The negative control refers to 5 nM E-cadherin fluorescence tracer and 150 nM β-catenin in assay buffer with no inhibitor presenting. The positive control refers to 5 nM E-cadherin fluorescence tracer in assay buffer. […] The negative control refers to 5 nM APC-R3 fluorescence tracer and 2,000 nM β-catenin in assay buffer without the tested compound. The positive control refers to 5 nM APC-R3 fluorescence tracer in assay buffer. Each assay plate was covered black and gently mixed on an orbital shaker at 4° C. for 2.5 h to reach equilibrium before the polarization values were read. […] The IC50 values were determined by GraphPad Prism 5.0. […] The results were expressed as mean±standard deviation. […]

The mark [4] stands for this setting: FP selectivity assay, mean ± SD (n = 3).

In general, Ki refers to the dissociation constant of the complex between target and ligand, obtained from inhibition or displacement. Turning to `O=C(O)c1ccc2c(c1)c(CCc1ccc(Cl)cc1)c(CCc1nc3ccccc3s1)n2CCc1nn[nH]n1` [Compound 27, 1-(2-(2H-tetrazol-5-yl)ethyl)-2-(2-(benzo[d]thiazol-2-yl)ethyl)-3-(4-chlorophenethyl)-1H-indole-5-carboxylic acid], the values for the Ki in assay [1] (setting [4]), in assay [2] (setting [4]) and in assay [3] were 74 ± 11 µM, 26 ± 8 µM and 0.93 ± 0.51 µM, respectively. Further, the “selectivity for β-catenin/Tcf over β-catenin/APC PPI” value in assay [1] (FP selectivity assays) is 80 fold. The “Selectivity Tcf/APC” value in assay [1] (ratio of Ki β-catenin/APC-R3 over Ki β-catenin/Tcf4) came out at 80. Also, the “selectivity for β-catenin/Tcf over β-catenin/cadherin PPI” value in assay [2] (FP selectivity assays) was found to be 28 fold. In addition, in assay [2] (ratio of Ki β-catenin/E-cadherin over Ki β-catenin/Tcf4), the “Selectivity Tcf/E-cadherin” value came out at 28.
